Assays:
[1] = Cytotoxicity against human 1321N1 cells assessed as reduction in cell viability at 50 uM incubated for 24 hrs by MTT assay relative to control; format: functional
[2] = Cytotoxicity against human HEK293 cells assessed as reduction in cell viability at 50 uM incubated for 24 hrs by MTT assay relative to control; format: toxicity, cell-based; conditions: read-out: INH
HeLa = test: Cytotoxicity against human HeLa cells assessed as reduction in cell viability at 50 uM incubated for 24 hrs by MTT assay relative to control; format: functional
[3] = target: T1, P2X purinoceptor 4 (Homo sapiens) (UniProt Q99571); test: Negative allosteric modulation activity at human P2X4 receptor expressed in human 1321N1 cells assessed as ATP induced calcium response by measuring maximal ATP efficacy at 40 nM relative to control; format: cell-based; conditions: filed as negative allosteric modulator
T1 sequence (whole entry): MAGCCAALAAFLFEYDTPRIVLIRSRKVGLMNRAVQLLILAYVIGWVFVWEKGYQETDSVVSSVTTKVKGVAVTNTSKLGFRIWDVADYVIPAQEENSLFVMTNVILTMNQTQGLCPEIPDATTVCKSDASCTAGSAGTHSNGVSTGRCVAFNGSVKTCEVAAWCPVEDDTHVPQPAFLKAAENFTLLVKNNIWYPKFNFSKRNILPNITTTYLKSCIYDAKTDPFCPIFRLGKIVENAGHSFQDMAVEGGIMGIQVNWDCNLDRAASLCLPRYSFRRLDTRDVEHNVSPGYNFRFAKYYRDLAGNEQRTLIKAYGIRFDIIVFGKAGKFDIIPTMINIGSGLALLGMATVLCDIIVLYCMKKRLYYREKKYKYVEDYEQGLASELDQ

[4] = target: T1, P2X purinoceptor 4 (Homo sapiens); test: Negative allosteric modulation activity at human P2X4 receptor expressed in human 1321N1 cells assessed as ATP induced calcium response by measuring maximal ATP efficacy at 100 nM relative to control; format: cell-based; conditions: filed as negative allosteric modulator
[5] = target: T1, P2X purinoceptor 4 (Homo sapiens); test: Negative allosteric modulation activity at human P2X4 receptor expressed in human 1321N1 cells assessed as ATP induced calcium response by measuring maximal ATP efficacy at 200 nM relative to control; format: cell-based
[6] = target: T2, P2X purinoceptor 2 (Homo sapiens) (UniProt Q9UBL9); test: Negative allosteric modulation activity at human P2X2 receptor expressed in human 1321N1 cells assessed as reduction in intracellular Ca2+ influx incubated for 30 mins by Fura-2 AM based fluorescence assay relative to control; format: cell-based
T2 sequence (whole entry): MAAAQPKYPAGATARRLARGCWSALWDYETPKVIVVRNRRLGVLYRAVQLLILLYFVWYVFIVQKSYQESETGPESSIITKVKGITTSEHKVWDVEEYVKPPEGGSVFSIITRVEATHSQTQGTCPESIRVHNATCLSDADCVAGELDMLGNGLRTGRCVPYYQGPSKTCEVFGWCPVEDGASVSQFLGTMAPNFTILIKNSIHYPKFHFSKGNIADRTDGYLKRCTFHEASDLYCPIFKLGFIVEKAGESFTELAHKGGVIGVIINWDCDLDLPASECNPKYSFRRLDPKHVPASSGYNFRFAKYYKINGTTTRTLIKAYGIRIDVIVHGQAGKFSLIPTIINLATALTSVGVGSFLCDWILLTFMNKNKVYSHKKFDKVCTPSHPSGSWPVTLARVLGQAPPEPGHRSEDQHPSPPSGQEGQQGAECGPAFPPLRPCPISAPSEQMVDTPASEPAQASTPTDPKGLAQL

P2X purinoceptor 5 = P2X purinoceptor 5 (Homo sapiens, UniProt Q93086); test: Negative allosteric modulation activity at human P2X5 receptor expressed in human 1321N1 cells assessed as reduction in intracellular Ca2+ influx incubated for 30 mins by Fura-2 AM based fluorescence assay relative to control; format: cell-based
P2X purinoceptor 7 = target: T3, P2X purinoceptor 7 (Homo sapiens, UniProt Q99572); test: Negative allosteric modulation activity at human P2X7 receptor expressed in human 1321N1 cells assessed as reduction in intracellular Ca2+ influx incubated for 30 mins by Fura-2 AM based fluorescence assay; format: cell-based
T3 sequence (Q99572 whole entry): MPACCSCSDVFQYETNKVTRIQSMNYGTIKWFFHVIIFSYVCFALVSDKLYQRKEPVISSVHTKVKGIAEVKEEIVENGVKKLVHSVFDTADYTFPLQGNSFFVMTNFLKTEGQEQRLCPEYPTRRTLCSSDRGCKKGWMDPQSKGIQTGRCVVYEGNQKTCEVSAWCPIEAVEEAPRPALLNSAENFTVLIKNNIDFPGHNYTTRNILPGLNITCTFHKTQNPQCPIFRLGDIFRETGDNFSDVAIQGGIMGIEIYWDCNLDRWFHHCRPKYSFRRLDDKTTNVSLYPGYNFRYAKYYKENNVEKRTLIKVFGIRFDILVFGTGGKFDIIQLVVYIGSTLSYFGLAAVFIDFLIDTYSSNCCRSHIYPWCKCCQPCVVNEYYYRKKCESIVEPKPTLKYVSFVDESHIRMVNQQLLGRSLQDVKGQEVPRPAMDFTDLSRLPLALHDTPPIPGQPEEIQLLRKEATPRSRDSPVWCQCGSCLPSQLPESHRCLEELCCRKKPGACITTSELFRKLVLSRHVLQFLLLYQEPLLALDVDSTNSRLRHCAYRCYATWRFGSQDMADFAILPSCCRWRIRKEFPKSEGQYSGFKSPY

Chain of P2X purinoceptor 5 (Q93086 whole entry): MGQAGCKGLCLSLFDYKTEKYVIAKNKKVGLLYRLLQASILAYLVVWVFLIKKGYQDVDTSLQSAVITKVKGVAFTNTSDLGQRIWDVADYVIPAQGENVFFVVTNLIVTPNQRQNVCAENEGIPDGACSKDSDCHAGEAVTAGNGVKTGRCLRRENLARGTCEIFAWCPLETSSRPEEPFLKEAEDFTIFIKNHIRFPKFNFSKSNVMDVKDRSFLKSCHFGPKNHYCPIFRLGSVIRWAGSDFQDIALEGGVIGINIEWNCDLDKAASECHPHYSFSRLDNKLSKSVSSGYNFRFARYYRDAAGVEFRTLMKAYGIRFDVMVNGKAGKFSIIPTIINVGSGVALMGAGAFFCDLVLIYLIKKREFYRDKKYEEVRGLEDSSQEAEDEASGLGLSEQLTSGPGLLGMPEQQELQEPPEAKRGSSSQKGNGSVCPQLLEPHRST

Emax [3]: 68%
Emax [4]: 45%
Emax [5]: 32%
inhibition [6]: 30%
inhibition (P2X purinoceptor 5): 12%
IC50 (P2X purinoceptor 7): 25.2 µM
SMILES: CC(C)c1ccc(NC(=S)NC(=O)C23CC4CC(CC(C4)C2)C3)c(Br)c1
inhibition at 50 µM [1]: 9.26%
cytotoxicity at 24 h, 50 µM [2]: 4.28%
inhibition at 50 µM (HeLa): 6.54%

Reference: ChEMBL document CHEMBL5131484, “Design and synthesis of adamantane-1-carbonyl thiourea derivatives as potent and selective inhibitors of h-P2X4 and h-P2X7 receptors: An Emerging therapeutic tool for treatment of inflammation and neurological disorders” (Eur J Med Chem, 2022)
